Assay results reported in the OPERA property sets (Mansouri et al. 2018).

Compared with `CC(=O)[C@@]1(O)CC[C@H]2[C@@H]3C[C@H](C)C4=CC(=O)C=C[C@]4(C)[C@@]3(F)[C@@H](O)C[C@@]21C`, `CC12CCC(=O)C=C1CCC1C2C(O)CC2(C)C1CCC2(O)C(=O)COC1OC(CO)C(O)C(O)C1O` (centres undefined) is lower in logP: 2 for the first, 0.15 for the second.

First: CCCCOC(=O)c1ccc(S(N)(=O)=O)cc1
Second: CS(=O)(=O)c1ccc(C(=O)O)cc1
The logP of the first is higher: 2.34 for the first, 0.67 for the second.

First: N#CNC(=N)N
Second: CC(C)COC(N)=O
The logP of the first is lower: -1.15 for the first, 0.65 for the second.

Compared with `CCCC(=NOCC)C1C(=O)CC(C)(C)OC1=O` (centres undefined), `CCCC1(CC)C(=O)NC(=O)NC1=O` is lower in logP: 2.56 for the first, 0.66 for the second.

First: c1ccc(C2CO2)cc1 (centres undefined)
Second: CC(C)[C@@H](N)Cc1ccccc1
The logP of the first is lower: 1.61 for the first, 2.59 for the second.

First: CC(=O)c1ccccc1N
Second: COC(=O)c1ccccc1Cl
The logP of the first is lower: 1.63 for the first, 2.38 for the second.

First: CCCCN(CCCC)CC(O)c1ccccc1 (centres undefined)
Second: CCN(CC)CCCN(c1ccccc1)C1Cc2ccccc2C1
The logP of the first is lower: 3.16 for the first, 4.86 for the second.

First: c1cncc([C@@H]2CCCCN2)c1
Second: O=Cc1ccncc1
The logP of the first is higher: 0.97 for the first, 0.43 for the second.

`Oc1c(Cl)cc(Cl)c(Cl)c1Cl` and `Clc1cc(Cl)c(Cl)cc1Cl` are within 0.2 log units of each other in logP: 4.45 for the first, 4.64 for the second.

First: CNc1ccc(C)cc1
Second: CC(=O)Nc1ccc(OC(C)=O)cc1
The logP of the first is higher: 2.15 for the first, 1.05 for the second.

Compared with `CNC(=O)Oc1cccc(OC)c1`, `COc1ccc(C=CC(=O)O)cc1` is higher in logP: 1.3 for the first, 2.68 for the second.

Going from `CC(C)(C(=O)O)C(=O)O` to `CC(=O)Oc1ccccc1C(=O)O`, the logP rises from 0.39 to 1.19.

`CC(=O)c1cccs1` and `COc1cc(C(=O)O)ccc1O` are within 0.2 log units of each other in logP: 1.25 for the first, 1.43 for the second.

Going from `Cc1ccc2[nH]ccc2c1` to `O=[N+]([O-])c1ccc2[nH]nnc2c1`, the logP falls from 2.68 to 1.95.

First: CCOC(=O)C(=Cc1ccc(Cl)cc1Cl)C(C)=O
Second: CCOC(=O)/C(=C\c1ccccc1Cl)C(C)=O
The logP of the first is higher: 3.67 for the first, 2.84 for the second.

Compared with `O=C(NC(CO)C(O)c1ccc([N+](=O)[O-])cc1)C(F)(F)F` (centres undefined), `COc1ccc([N+](=O)[O-])cn1` is higher in logP: 1.07 for the first, 1.55 for the second.

Compared with `NNC=O`, `NC(=O)N/N=C/c1ccc([N+](=O)[O-])o1` is higher in logP: -2.05 for the first, 0.23 for the second.

Compared with `O=c1[nH]cc(F)c(=O)[nH]1`, `Cc1cc(Cl)c(N=C2NCCN2)c(Cl)c1` is higher in logP: -0.89 for the first, 1.92 for the second.

Going from `C=CNP(=O)(NC=C)NC(=O)c1ccc(OC)cc1` to `COc1ccc(CC#N)cc1`, the logP rises from 1.08 to 1.7.

`CN(C)C(N(C)C)=S(I)c1ccc(S(=O)(=O)N(C)C)cc1` (centres undefined) and `CC(=O)c1ccc(S(I)=C(N(C)C)N(C)C)cc1` (centres undefined) are within 0.2 log units of each other in logP: -0.81 for the first, -0.85 for the second.

Going from `O=S1(=O)N=CNc2ccccc21` to `CCn1nc2ccccc2n1`, the logP rises from 0.16 to 2.1.

Compared with `O=NN1CCCCC1`, `C1CCCCCC1` is higher in logP: 0.36 for the first, 4 for the second.

Going from `Cc1ccc(S(I)=C(N(C)C)N(C)C)cc1Cl` (centres undefined) to `O=C(O)COc1ccc(Cl)c(Cl)c1`, the logP rises from 0.45 to 2.81.

First: c1ccc(C23CC4CC(CC(C4)C2)C3)cc1
Second: CCC(C)NC(=O)C=Cc1ccccc1 (centres undefined)
The logP of the first is higher: 5.55 for the first, 2.85 for the second.

Going from `CC(=O)CCC1CC1` to `COc1c(O)cc2c(c1OC)-c1ccc(SC)c(=O)cc1C(NC(=O)C(F)(F)F)CC2` (centres undefined), the logP rises from 1.5 to 2.61.

First: CCOC(=O)C(=Cc1ccccc1[N+](=O)[O-])C(=O)OCC
Second: CCOC(=O)C(=Cc1cccc(C)c1)C(=O)OCC
The logP of the first is lower: 2.54 for the first, 3.55 for the second.

Going from `NC(=O)Nc1ccc(Oc2ccccc2)cc1` to `Clc1ccc2ccccc2c1Cl`, the logP rises from 2.8 to 4.42.

First: CN(O)N=Nc1ccc(C(N)=O)cc1
Second: COc1ccc(Cl)cc1C(=O)NCCc1ccc(C(=O)O)cc1
The logP of the first is lower: -0.22 for the first, 3.4 for the second.

Going from `C1OCOCO1` to `S=P(N1CC1)(N1CC1)N1CC1`, the logP rises from -0.43 to 0.53.

For `OCc1ccccn1`, the logP was 0.06.
